Test results reported in PMC9700480 (Drug Design, Development and Therapy, 2022).

System: alloxan-induced diabetic mice
Experiment: In vivo anti-diabetic activity in alloxan-induced diabetic mice
Parameters: species or system albino mice (strain balb/c)

Question: What does the source list for C[C@H]1O[C@H](O[C@H]2[C@H](O)[C@@H](O)[C@@H](O[C@H]3[C@H](O)[C@@H](O)C(O)O[C@@H]3CO)O[C@@H]2CO)[C@H](O)[C@@H](O)[C@@H]1N[C@H]1C=C(CO)[C@@H](O)[C@H](O)[C@H]1O (some centres unmarked) [Acarbose]?
Answer: Creatinine content (day 21, compared with diabetic control): significant (p < 0.05) decrease in creatinine content; level of insulin in serum (day 21, FA2 at high dose): 25 ± 3.1 pmol/L
